Results: patent US9403823B2, “Protein kinase inhibitors” (ORIBASE PHARMA, priority 2012, dated 2016)
Read-outs that look alike come from different tables or passages of the source.

Columns and labels:
[1] = target: T1, KDR (VEGFR2) (Homo sapiens, UniProt P35968); assay: In vitro kinase assay (Z'-LYTE), KDR (VEGFR2); format: biochemical; conditions: read-out: % of inhibition of the kinase compared to the control
T1 construct: purchased Invitrogen
Description: (§1) 1) In Vitro Kinase Assays (Table 10 to Table 21)
(§2) The inhibitory activity of the compounds on several kinases including BRAF, EGFR (ErbB1), EGFR (ErbB1) T790M L858R, FGFR2, KDR (VEGFR2), PDGFRA (PDGFR alpha), SRC and other was evaluated by Invitrogen using the Z′-LYTE® technology. Briefly, the Z′-LYTE® biochemical assay employs a fluorescence-based, coupled-enzyme format and is based on the differential sensitivity of phosphorylated and non-phosphorylated peptides to proteolytic cleavage. The peptide substrate is labeled with two fluorophores—one at each end—that make up a FRET pair. A ratiometric method, which calculates the ratio (the Emission Ratio) of donor emission to acceptor emission after excitation of the donor fluorophore at 400 nm, is used to quantitate reaction progress.
(§3) The compounds are screened in 1% DMSO (final) in the well. For 10 point titrations, 3-fold serial dilutions are conducted from the starting concentration. All Peptide/Kinase Mixtures are diluted to a 2× working concentration in the appropriate Kinase Buffer. All ATP Solutions are diluted to a 4× working concentration in Kinase Buffer (50 mM HEPES pH 7.5, 0.01% BRIJ-35, 10 mM MgCl2, 1 mM EGTA). ATP Km apparent is previously determined using a Z′-LYTE® assay.
(§4) Each compound was incubated at a concentration of 100 nM (excepted to test the activity against ABL and ABL T315I for which the compounds were incubated at a concentration of 10 μM) and the tables 10 to 21 summarize the results obtained showing the inhibitory power of a compound.

[2] = target: T2, BRAF (Homo sapiens, UniProt P15056); assay: In vitro kinase assay (Z'-LYTE), BRAF; format: biochemical; conditions: read-out: % of inhibition of the kinase compared to the control
T2 construct: purchased Invitrogen
T2 sequence (P15056 whole entry): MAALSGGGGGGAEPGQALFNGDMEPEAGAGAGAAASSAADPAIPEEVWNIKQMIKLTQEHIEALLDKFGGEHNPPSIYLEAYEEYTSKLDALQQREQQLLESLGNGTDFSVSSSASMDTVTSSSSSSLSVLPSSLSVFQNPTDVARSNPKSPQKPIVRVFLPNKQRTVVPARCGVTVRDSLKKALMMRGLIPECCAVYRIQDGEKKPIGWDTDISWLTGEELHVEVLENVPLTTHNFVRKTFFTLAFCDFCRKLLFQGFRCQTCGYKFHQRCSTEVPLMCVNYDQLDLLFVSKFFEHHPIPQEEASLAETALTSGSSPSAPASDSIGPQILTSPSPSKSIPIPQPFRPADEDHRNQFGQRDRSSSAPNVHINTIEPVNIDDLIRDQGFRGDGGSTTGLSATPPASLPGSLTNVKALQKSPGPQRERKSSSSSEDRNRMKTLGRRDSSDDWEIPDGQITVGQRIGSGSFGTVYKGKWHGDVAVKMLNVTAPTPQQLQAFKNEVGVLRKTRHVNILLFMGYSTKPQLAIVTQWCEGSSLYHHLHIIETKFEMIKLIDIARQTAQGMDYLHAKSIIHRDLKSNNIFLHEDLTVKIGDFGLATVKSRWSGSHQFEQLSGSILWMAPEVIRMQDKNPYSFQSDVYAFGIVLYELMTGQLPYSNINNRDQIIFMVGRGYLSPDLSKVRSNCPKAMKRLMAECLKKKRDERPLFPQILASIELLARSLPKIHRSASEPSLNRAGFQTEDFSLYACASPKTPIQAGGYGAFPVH
Description: as §1, §2, §3, §4

[3] = target: T3, FGFR2 (Homo sapiens, UniProt P21802); assay: In vitro kinase assay (Z'-LYTE), FGFR2; format: biochemical; conditions: read-out: % of inhibition of the kinase compared to the control
T3 construct: purchased Invitrogen
T3 sequence (P21802 22-821): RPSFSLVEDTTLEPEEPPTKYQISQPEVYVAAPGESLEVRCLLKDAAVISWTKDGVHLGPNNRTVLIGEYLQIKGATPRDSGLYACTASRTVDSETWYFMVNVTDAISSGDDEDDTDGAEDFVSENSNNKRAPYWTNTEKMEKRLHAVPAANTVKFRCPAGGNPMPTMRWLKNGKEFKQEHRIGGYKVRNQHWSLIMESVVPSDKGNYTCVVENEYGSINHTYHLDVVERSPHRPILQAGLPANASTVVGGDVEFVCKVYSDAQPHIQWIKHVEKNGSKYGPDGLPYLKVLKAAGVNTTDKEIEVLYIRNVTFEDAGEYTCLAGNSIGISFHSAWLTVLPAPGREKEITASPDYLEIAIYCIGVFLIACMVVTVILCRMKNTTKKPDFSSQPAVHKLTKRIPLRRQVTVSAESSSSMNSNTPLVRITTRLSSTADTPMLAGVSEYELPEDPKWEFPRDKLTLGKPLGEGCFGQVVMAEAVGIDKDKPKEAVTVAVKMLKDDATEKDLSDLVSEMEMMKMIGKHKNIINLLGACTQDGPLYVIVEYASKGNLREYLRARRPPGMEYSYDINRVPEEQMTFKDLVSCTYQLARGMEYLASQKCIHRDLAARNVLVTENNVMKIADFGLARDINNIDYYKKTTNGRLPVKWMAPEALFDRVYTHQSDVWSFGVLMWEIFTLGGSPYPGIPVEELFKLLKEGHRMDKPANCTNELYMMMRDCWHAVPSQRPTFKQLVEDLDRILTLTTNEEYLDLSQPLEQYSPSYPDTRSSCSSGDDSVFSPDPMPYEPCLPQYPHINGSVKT
Description: as §1, §2, §3, §4

[4] = target: T4, EGFR (ErbB1) (Homo sapiens, UniProt P00533); assay: In vitro kinase assay (Z'-LYTE), EGFR (ErbB1); format: biochemical; conditions: read-out: % of inhibition of the kinase compared to the control
T4 construct: purchased Invitrogen
T4 sequence (P00533 25-1210): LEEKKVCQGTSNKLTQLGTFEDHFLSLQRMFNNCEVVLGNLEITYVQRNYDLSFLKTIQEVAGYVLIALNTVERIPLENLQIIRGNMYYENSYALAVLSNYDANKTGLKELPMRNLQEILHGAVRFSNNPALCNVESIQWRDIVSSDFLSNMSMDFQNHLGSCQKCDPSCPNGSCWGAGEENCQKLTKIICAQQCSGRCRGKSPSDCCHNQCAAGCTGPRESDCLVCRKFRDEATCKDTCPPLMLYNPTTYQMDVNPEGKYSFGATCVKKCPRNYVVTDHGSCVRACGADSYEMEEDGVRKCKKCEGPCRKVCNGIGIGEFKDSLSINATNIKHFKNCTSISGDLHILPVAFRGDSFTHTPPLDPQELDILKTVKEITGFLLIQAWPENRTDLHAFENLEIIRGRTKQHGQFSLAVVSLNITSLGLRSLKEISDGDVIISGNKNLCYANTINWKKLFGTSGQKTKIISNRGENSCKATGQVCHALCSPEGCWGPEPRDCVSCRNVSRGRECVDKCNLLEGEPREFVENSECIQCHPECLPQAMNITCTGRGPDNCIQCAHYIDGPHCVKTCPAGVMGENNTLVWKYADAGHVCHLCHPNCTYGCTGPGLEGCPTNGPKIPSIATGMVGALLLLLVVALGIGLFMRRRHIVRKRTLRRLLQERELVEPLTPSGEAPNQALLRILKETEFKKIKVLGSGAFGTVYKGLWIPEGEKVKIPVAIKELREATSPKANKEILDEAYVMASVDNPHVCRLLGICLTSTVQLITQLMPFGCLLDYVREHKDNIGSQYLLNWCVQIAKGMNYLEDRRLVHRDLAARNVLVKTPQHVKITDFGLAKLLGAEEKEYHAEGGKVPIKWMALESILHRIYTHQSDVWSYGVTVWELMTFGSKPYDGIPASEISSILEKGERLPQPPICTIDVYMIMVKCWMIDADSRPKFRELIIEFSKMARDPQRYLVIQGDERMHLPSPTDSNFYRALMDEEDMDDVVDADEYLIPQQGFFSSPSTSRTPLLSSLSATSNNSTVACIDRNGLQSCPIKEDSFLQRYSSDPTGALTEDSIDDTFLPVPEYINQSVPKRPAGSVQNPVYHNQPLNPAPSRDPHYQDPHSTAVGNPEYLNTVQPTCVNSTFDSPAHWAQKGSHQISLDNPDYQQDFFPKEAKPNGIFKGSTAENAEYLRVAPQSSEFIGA
Description: as §1, §2, §3, §4

[5] = tested on: HUVEC; assay: In vitro cell proliferation assay (MTT), HUVEC; format: cell-based; conditions: Homo sapiens, 72 h, read-out: EC50, anti-proliferative activity
Description: (§5) 2) In Vitro Cell Proliferation Assays (Table 22 to Table 35)
(§6) Cancer cell lines (5×10^3 cells per well) or HUVEC (1×10^4 cells per well) or HRMEC (1×10^4 cells per well) were distributed in 96-well plates and incubating in duplicate with escalating concentrations (10 nM to 3 μM) of compounds for 72 hr. Cell proliferation was measured using MTT (3[4,5-dimethylthiazol-2-yl]-2,5-diphenyltetrazolium bromide).

[6] = target: T5, PDGFRA (PDGFR alpha) (Homo sapiens, UniProt P16234); assay: In vitro kinase assay (Z'-LYTE), PDGFRA; format: biochemical; conditions: read-out: % of inhibition of the kinase compared to the control
T5 construct: purchased Invitrogen
Description: as §1, §2, §3, §4

[7] = tested on: HepG2 cell line; assay: In vitro cell proliferation assay (MTT), HepG2; format: cell-based; conditions: Homo sapiens, read-out: EC50, anti-proliferative activity
Description: as §5, §6

[8] = target: T6, SRC (Homo sapiens, UniProt P12931); assay: In vitro kinase assay (Z'-LYTE), SRC; format: biochemical; conditions: read-out: % of inhibition of the kinase compared to the control
T6 construct: purchased Invitrogen
T6 sequence (P12931 whole entry): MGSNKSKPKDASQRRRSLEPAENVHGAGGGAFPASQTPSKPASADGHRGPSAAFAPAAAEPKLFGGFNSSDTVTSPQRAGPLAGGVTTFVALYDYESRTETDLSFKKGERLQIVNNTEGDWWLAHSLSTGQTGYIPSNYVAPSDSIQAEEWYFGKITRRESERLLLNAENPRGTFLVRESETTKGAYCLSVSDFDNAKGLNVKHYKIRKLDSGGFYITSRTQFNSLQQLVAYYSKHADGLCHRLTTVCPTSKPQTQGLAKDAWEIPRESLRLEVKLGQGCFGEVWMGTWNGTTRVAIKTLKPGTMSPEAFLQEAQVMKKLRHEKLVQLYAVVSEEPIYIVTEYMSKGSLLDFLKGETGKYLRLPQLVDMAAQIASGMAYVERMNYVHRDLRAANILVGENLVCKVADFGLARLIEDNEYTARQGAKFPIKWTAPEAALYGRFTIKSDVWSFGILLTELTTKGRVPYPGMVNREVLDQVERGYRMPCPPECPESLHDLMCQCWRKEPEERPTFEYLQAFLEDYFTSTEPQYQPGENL
Description: as §1, §2, §3, §4

T1 sequence (P35968 20-1356): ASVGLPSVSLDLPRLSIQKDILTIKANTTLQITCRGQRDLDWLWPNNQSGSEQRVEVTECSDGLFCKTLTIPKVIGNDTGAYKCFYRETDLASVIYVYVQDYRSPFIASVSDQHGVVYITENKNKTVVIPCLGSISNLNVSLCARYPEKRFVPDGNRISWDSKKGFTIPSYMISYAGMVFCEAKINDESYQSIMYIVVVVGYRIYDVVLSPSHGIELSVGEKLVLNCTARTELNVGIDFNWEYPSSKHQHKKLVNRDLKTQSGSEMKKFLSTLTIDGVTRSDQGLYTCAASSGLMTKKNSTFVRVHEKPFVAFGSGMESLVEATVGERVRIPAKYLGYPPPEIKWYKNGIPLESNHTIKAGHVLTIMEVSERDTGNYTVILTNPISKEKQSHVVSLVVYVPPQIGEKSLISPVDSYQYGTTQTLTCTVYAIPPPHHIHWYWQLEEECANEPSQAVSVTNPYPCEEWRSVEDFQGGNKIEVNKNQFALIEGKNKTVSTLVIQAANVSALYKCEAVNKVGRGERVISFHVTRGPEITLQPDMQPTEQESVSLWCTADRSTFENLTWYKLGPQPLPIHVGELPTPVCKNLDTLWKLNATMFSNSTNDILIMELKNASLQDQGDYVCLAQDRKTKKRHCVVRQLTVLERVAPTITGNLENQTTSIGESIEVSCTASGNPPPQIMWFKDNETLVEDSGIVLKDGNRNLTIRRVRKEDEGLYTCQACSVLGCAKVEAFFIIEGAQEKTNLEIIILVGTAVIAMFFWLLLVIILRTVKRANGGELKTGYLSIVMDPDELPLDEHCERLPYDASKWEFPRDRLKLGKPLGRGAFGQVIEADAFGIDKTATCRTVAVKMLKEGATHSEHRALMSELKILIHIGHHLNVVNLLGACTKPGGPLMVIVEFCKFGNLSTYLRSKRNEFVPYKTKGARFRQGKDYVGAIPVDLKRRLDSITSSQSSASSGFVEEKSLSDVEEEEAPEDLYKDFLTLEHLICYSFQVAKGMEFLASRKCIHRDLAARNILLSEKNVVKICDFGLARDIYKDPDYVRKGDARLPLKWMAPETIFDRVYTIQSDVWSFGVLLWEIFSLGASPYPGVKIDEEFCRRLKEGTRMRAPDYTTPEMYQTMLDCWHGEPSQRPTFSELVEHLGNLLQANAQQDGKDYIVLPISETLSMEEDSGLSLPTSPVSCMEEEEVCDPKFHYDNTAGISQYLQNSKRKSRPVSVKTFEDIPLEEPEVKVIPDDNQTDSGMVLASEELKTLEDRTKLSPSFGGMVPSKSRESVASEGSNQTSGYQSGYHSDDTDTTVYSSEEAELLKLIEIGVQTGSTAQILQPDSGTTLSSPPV

SMILES | inhibition at 0.1 µM [1] [%] | inhibition at 0.1 µM [2] [%] | inhibition at 0.1 µM [3] [%] | inhibition at 0.1 µM [4] [%] | inhibition at 0.1 µM [6] [%] | EC50 ([7]; HepG2, 72 hr, MTT) [µM] | inhibition at 0.1 µM [8] [%] | EC50 ([7]; HepG2, 72 h) [µM] | EC50 [5] [µM]
Cc1ccc(NC(=O)c2ccc(CN3CCN(C)CC3)c(C(F)(F)F)c2)cc1C(=O)Nc1cnc2[nH]c(C(=O)O)cc2c1 [OR0810, 5-{2-Methyl-5-[4-(4-methyl-piperazin-1-ylmethyl)-3-trifluoromethyl-benzoylamino]-benzoylamino}-1H-pyrrolo[2,3-b]pyridine-2-carboxylic acid] | ≥ 50 | < 50 | ≥ 50 | ≥ 50 | – | – | – | – | –
Cc1ccc(NC(=O)c2ccc(CN3CC[C@H](N(C)C)C3)c(C(F)(F)F)c2)cc1CNc1cnc2[nH]c(C(=O)O)cc2c1 [OR0814, 5-{5-[4-((S)-3-Dimethylamino-pyrrolidin-1-ylmethyl)-3-trifluoromethyl-benzoylamino]-2-methyl-benzylamino}-1H-pyrrolo[2,3-b]pyridine-2-carboxylic acid] | ≥ 50 | < 50 | ≥ 50 | ≥ 50 | – | – | – | – | –
CC(=O)c1cc2cc(NCc3cc(NC(=O)c4ccc(C(F)(F)F)nc4)ccc3C)cnc2[nH]1 [OR0886, N-{3-[(2-Acetyl-1H-pyrrolo[2,3-b]pyridin-5-ylamino)-methyl]-4-methyl-phenyl}-6-trifluoromethyl-nicotinamide] | < 50 | < 50 | < 50 | – | ≥ 50 | ≥ 1 | < 50 | – | 0.1 to 1
CC(=O)c1cc2cc(NCc3cc(NC(=O)c4ccnc(C(F)(F)F)c4)ccc3C)cnc2[nH]1 [OR0887, N-{3-[(2-Acetyl-1H-pyrrolo[2,3-b]pyridin-5-ylamino)-methyl]-4-methyl-phenyl}-2-trifluoromethyl-isonicotinamide] | ≥ 50 | ≥ 50 | < 50 | < 50 | – | – | – | – | 0.1 to 1
CC(=O)c1cc2cc(NCc3cc(NC(=O)c4cncc(C)c4)ccc3C)cnc2[nH]1 [OR0888, N-{3-[(2-Acetyl-1H-pyrrolo[2,3-b]pyridin-5-ylamino)-methyl]-4-methyl-phenyl}-5-methyl-nicotinamide] | ≥ 50 | ≥ 50 | < 50 | < 50 | ≥ 50 | ≥ 1 | ≥ 50 | – | 0.1 to 1

Continued, in another order:

inhibition at 0.1 µM [1] [%] | inhibition at 0.1 µM [2] [%] | inhibition at 0.1 µM [3] [%] | inhibition at 0.1 µM [4] [%] | inhibition at 0.1 µM [6] [%] | EC50 ([7]; HepG2, 72 hr, MTT) [µM] | inhibition at 0.1 µM [8] [%] | EC50 ([7]; HepG2, 72 h) [µM] | SMILES | EC50 [5] [µM]
< 50 | ≥ 50 | < 50 | < 50 | ≥ 50 | ≥ 1 | < 50 | – | CC(=O)c1cc2cc(NCc3cc(NC(=O)c4ccnc(C)c4)ccc3C)cnc2[nH]1 [OR0889, N-{3-[(2-Acetyl-1H-pyrrolo[2,3-b]pyridin-5-ylamino)-methyl]-4-methyl-phenyl}-2-methyl-isonicotinamide] | 0.1 to 1
< 50 | < 50 | < 50 | ≥ 50 | ≥ 50 | – | ≥ 50 | 0.1 to 1 | CC(=O)c1cc2cc(NCc3cc(NC(=O)c4ccc(C)c(C(F)(F)F)c4)ccc3C)cnc2[nH]1 [OR0890, N-{3-[(2-Acetyl-1H-pyrrolo[2,3-b]pyridin-5-ylamino)-methyl]-4-methyl-phenyl}-4-methyl-3-trifluoromethyl-benzamide] | 0.1 to 1
< 50 | < 50 | < 50 | < 50 | < 50 | – | < 50 | 0.1 to 1 | CC(=O)c1cc2cc(NCc3cc(NC(=O)c4ccc(Cl)c(C(F)(F)F)c4)ccc3C)cnc2[nH]1 [OR0891, N-{3-[(2-Acetyl-1H-pyrrolo[2,3-b]pyridin-5-ylamino)-methyl]-4-methyl-phenyl}-4-chloro-3-trifluoromethyl-benzamide] | 0.1 to 1
